Values joined by “and” are separate entries in the source; they are usually repeats but may differ in a detail not shown here. Equal entries are not always repeated. Each block holds one compound with its values, some of them ahead of it.
Tests used:
5-HT1A receptor = conditions: cited from earlier work
dopamine D2 receptor = target: T1, dopamine D2 receptor (Rattus norvegicus, UniProt P61169); experiment: Affinity for the dopamine D2 receptor, 3H-spiroperidol binding in homogenized limbic brain tissue; conditions: for IC50: read-out: Receptor Affinities D2 (IC50 (nM)); for inhibition at 1 µM: read-out: Receptor Affinities D2 (% @ ( ) μM)
T1 construct: from tissue; host or cells: homogenized limbic brain tissue
Procedure: Affinity for the dopamine D2 receptor was established by the standard experimental test procedure of Fields, et al., Brain Res., 136, 578 (1977) and Yamamura et al., eds., Neurotransmitter Receptor Binding, Raven Press, New York (1978) wherein homogenized limbic brain tissue is incubated with ^3 H-spiroperidol and various concentrations of test compound, filtered and washed and shaken with Hydrofluor scintillation cocktail (National Diagnostics) and counted in a Packard 460 CD scintillation counter.

mouse locomotor activity = experiment: Reduction of mouse locomotor activity (hypolocomotion; Martin and Bendensky); assay type: in vivo, mouse (male, CF-1); conditions: horizontal activity counts 10 to 20 minutes after dosing; for ED50: Mus musculus, ip, 20 min
Procedure: The antipsychotic activity of the compounds of the invention was further established by a determination of the compounds' ability to reduce mouse locomotor activity according to the method of Martin and Bendensky, J. Pharmacol. Exp. Therap. 229: 706-711, 1984, in which mice (male, CF-1, Charles River, 20-30 g) were injected with vehicle or various doses of each drug and locomotor activity was measured for 30 minutes using automated infrared activity monitors (Omnitech-8×8 inch open field) located in a darkened room. ED50's were calculated from the horizontal activity counts collected from 10 to 20 minutes after dosing using a nonlinear regression analysis with inverse prediction.

[1] = test system: dopamine synthesis (dopa accumulation; dopamine autoreceptor); experiment: Inhibition of dopa accumulation in GBL-treated rats (method of Walters and Roth); assay type: in vivo, rat (male, Sprague-Dawley); conditions: rat; for Dopa Accumulation (% inhib. @ 10 mg/kg, sc), limbic (L): limbic (L) brain tissue; for Dopa Accumulation (% inhib. @ 10 mg/kg, sc), striatal (S): striatal (S) brain tissue; for Dopa Accumulation (% inhib. @ 10 mg/kg, sc), tissue not indicated: (L)/(S) mark not given
Procedure: The effect of the compounds of the invention on the synthesis of dopamine was established by the method of Walters and Roth, Naunyn-Schmiedeberg's Arch. Pharmacol. 296:5-14, 1976, in which rats (male, Sprague-Dawley, Charles River, 200-350 g) were administered vehicle or test drug ten minutes prior to the administration of gamma butyrolactone (GBL; 750 mg/kg, ip to inhibit dopaminergic impulse flow) and 20 minutes prior to NSD-1015 (100 mg/kg, ip to prevent the conversion of dopa to dopamine). Thirty minutes after NSD-1015 all rats were humanely euthenized and the nucleus accumbens and the straitum were removed for analysis. Following perchloric acid extraction of the tissue, the extracts were placed over alumina columns to collect and concentrate dopa and other catechols. This eluate was then subjected to HPLC analysis using electrochemical detection to quantify the levels of dopa present. Dopamine autoreceptor agonists, under the conditions used above, inhibit dopa accumulation.

[2] = target: T2, serotonin 5-HT1A receptor (Rattus norvegicus, UniProt P19327); experiment: Affinity for the serotonin 5-HT1A receptor, displacement of [3H]8-OHDPAT (Hall et al.); assay type: binding; conditions: [3H]8-OHDPAT displacement; for IC50: read-out: Receptor Affinities 5-HT1A (IC50 (nM)); for inhibition at 0.1 µM: read-out: Receptor Affinities 5-HT1A (% @ ( ) μM)
T2 construct: following the procedure of Hall et al., J. Neurochem; 44, 1685 (1985); from tissue
T2 sequence (P19327 1-422): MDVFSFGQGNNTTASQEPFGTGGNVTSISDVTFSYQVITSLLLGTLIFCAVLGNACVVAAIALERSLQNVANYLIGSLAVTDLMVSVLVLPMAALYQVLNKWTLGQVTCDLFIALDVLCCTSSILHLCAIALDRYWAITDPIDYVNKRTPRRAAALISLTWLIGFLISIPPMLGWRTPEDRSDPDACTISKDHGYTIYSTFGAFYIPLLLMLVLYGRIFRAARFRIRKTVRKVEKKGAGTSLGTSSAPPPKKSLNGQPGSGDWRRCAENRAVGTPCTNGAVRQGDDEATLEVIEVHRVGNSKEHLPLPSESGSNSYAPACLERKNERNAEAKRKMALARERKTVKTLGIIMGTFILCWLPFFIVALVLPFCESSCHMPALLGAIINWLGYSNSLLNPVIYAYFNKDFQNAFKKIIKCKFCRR
From the text: Affinity for the serotonin 5-HT1A receptor was established by testing the claimed compound's ability to displace [^3 H]8-OHDPAT (dipropylaminotetralin) from the 5-HT1A serotonin receptor following the procedure of Hall et al., J. Neurochem. 44, 1685 (1985). […] The anxiolytic activity of buspirone is believed to be, at least partially, due to its 5-HT1A receptor affinity (Vander Maclen et al., Eur. J. Pharmacol. 1986, 129 (1-2) 133-[…]).

T1 sequence (P61169 whole entry): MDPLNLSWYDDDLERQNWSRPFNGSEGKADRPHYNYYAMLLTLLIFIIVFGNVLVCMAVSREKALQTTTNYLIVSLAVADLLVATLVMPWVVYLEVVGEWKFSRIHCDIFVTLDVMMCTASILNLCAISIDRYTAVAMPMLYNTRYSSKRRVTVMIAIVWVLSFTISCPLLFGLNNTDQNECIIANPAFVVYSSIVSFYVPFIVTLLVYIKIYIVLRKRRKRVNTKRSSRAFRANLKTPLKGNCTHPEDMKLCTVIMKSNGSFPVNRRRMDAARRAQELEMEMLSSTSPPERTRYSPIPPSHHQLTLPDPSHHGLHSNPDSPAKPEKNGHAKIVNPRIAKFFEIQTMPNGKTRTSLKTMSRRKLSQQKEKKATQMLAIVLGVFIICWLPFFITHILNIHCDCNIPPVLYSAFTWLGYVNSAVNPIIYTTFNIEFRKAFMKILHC

Compound: O=C1CC2(CCCC2)CC(=O)N1CCCCNCC1COc2ccccc2O1 (single isomer, unassigned; (-)) [(-)-MDL 72832]
binding at the 5-HT1A receptor site relative to the dextrorotary isomer (5-HT1A receptor; (-)-isomer vs dextrorotary isomer, Fozard et al. 1987): 32 times

IC50 (dopamine D2 receptor): 112 nM
IC50 [2]: 0.5 nM
Compound: O=c1ccc2ccc(OCCCNCC3COc4ccccc4O3)cc2o1 (stereo not drawn) [Example 1, 7-[3-[[(2,3-Dihydro-1,4-benzodioxin-2-yl)methyl]amino]propoxy]-2H-1-benzopyran-2-one]
ED50 (mouse locomotor activity): 0.58 mg/kg
Dopa Accumulation (% inhib. @ 10 mg/kg, sc), limbic (L) [1]: 39%
Dopa Accumulation (% inhib. @ 10 mg/kg, sc), striatal (S) [1]: 1%

Compound: COc1cccc2c1OCC(CNCCCOc1ccc3ccc(=O)oc3c1)O2 (stereo not drawn) [Example 2, 7-[3-[[(2,3-Dihydro-5-methoxy-1,4-benzodioxin-2-yl)methyl]amino]propoxy]-2H-1-benzopyran-2-one]
Dopa Accumulation (% inhib. @ 10 mg/kg, sc), limbic (L) [1]: -12%

Compound: O=c1ccc2ccc(OCCCNCC3COc4cc(OCc5ccccc5)ccc4O3)cc2o1 (stereo not drawn) [Example 4, 7-[3-[[(2,3-Dihydro-6-phenylmethoxy-1,4-benzodioxin-2-yl)methyl]amino]propoxy]-2H-1-benzopyran-2-one]
Dopa Accumulation (% inhib. @ 10 mg/kg, sc), limbic (L) [1]: 20%

IC50 (dopamine D2 receptor): 337 nM and 730 nM
IC50 [2]: 112 nM
Compound: O=c1ccc2ccc(OCCCNCC3COc4cc(O)ccc4O3)cc2o1 (stereo not drawn) [Example 5, 7-[3-[[(2,3-Dihydro-6-hydroxy-1,4-benzodioxin-2-yl)methyl]amino]propoxy]-2H-1-benzopyran-2-one]
ED50 (mouse locomotor activity): 1.62 mg/kg
Hypolocomotion (ED50 mg/kg, ip) (mouse locomotor activity): 2.04 mg/kg
Dopa Accumulation (% inhib. @ 10 mg/kg, sc), limbic (L) [1]: 60%
Dopa Accumulation (% inhib. @ 10 mg/kg, sc), striatal (S) [1]: 18%

inhibition at 1 µM (dopamine D2 receptor): 100%
IC50 [2]: 6 nM
Compound: O=c1ccc2ccc(OCCCNCC3COc4ccc(O)cc4O3)cc2o1 (stereo not drawn) [Example 6, 7-[3-[[(2,3-Dihydro-7-hydroxy-1,4-benzodioxin-2-yl)methyl]amino]propoxy]-2H-1-benzopyran-2-one]
ED50 (mouse locomotor activity): 0.19 mg/kg
Dopa Accumulation (% inhib. @ 10 mg/kg, sc), limbic (L) [1]: 76%
Dopa Accumulation (% inhib. @ 10 mg/kg, sc), striatal (S) [1]: 73%

Compound: O=c1ccc2c(OCCCNCC3COc4ccccc4O3)cccc2[nH]1 (stereo not drawn) [Example 7, 5-[3-[[(2,3-Dihydro-1,4-benzodioxin-2-yl)methyl]amino]propoxy]-2(1H)-quinolinone]
Dopa Accumulation (% inhib. @ 10 mg/kg, sc), limbic (L) [1]: 1.5%
Dopa Accumulation (% inhib. @ 10 mg/kg, sc), striatal (S) [1]: 51.3%

IC50 [2]: 104 nM
Compound: O=c1ccc2ccc(OCCCNC[C@H]3COc4cc(O)ccc4O3)cc2o1 [Example 8, (S)-7-[3-[[(2,3-Dihydro-6-hydroxy-1,4-benzodioxin-2-yl)methyl]amino]propoxy]-2H-1-benzopyran-2-one]
ED50 (mouse locomotor activity): 3.5 mg/kg
Dopa Accumulation (% inhib. @ 10 mg/kg, sc), limbic (L) [1]: 50%

inhibition at 1 µM (dopamine D2 receptor): 66%
Compound: COc1ccc2c(c1)OC(CNCCCOc1ccc3ccc(=O)oc3c1)CO2 (stereo not drawn) [Example 9, 7-[3-[[(2,3-Dihydro-7-methoxy-1,4-benzodioxin-2-yl)methyl]amino]propoxy]-2H-1-benzopyran-2-one]
Dopa Accumulation (% inhib. @ 10 mg/kg, sc), limbic (L) [1]: 21.7%

Compound: O=c1ccc2ccc(OCCCNC[C@@H]3COc4cc(O)ccc4O3)cc2o1 [Example 10, (R)-7-[3-[[(2,3-Dihydro-6-hydroxy-1,4-benzodioxin-2-yl)methyl]amino]propoxy]-2H-1-benzopyran-2-one]
Dopa Accumulation (% inhib. @ 10 mg/kg, sc), tissue not indicated [1]: 24.0%

Compound: CC(=O)Oc1ccc2c(c1)OCC(CNCCCOc1ccc3ccc(=O)oc3c1)O2 (stereo not drawn) [Example 11, 7-[3-[[(2,3-Dihydro-6-acetoxy-1,4-benzodioxin-2-yl)methyl]amino]propoxy]-2H-1-benzopyran-2-one]
Dopa Accumulation (% inhib. @ 10 mg/kg, sc), limbic (L) [1]: 37.7%
inhibition at 0.1 µM [2]: 78%

inhibition at 0.1 µM [2]: 81%
Compound: CCN(CCCOc1ccc2ccc(=O)oc2c1)CC1COc2ccc(O)cc2O1 (stereo not drawn) [Example 12, 7-[3-[[(2,3-Dihydro-7-hydroxy-1,4-benzodioxin-2-yl)methyl]ethylamino]propoxy]-2H-1-benzopyran-2-one]
ED50 (mouse locomotor activity): 1.6 mg/kg
Dopa Accumulation (% inhib. @ 10 mg/kg, sc), limbic (L) [1]: 61.6%

Compound: COc1ccc2c(c1)OC(CN(C)CCCOc1ccc3ccc(=O)oc3c1)CO2 (stereo not drawn) [Example 14]
Dopa Accumulation (% inhib. @ 10 mg/kg, sc), tissue not indicated [1]: 19.5%

inhibition at 0.1 µM [2]: 23%
Compound: CN(CCCOc1ccc2ccc(=O)oc2c1)CC1COc2cc(O)ccc2O1 (stereo not drawn) [Example 15, 7-[3-[[(2,3-Dihydro-6-hydroxy-1,4-benzodioxin-2-yl)methyl]methylamino]propoxy]-2H-1-benzopyran-2-one]
Dopa Accumulation (% inhib. @ 10 mg/kg, sc), tissue not indicated [1]: 9.2%

Compound: COc1cc(OC)c2c(c1)OCC(CNCCCOc1ccc3ccc(=O)oc3c1)O2 (stereo not drawn) [Example 19]
Dopa Accumulation (% inhib. @ 10 mg/kg, sc), limbic (L) [1]: 23%

Compound: O=c1ccc2ccc(OCCCNC[C@H]3COc4ccc(O)cc4O3)cc2o1 [Example 20, (S)-7-[3-[[(2,3-Dihydro-7-hydroxy-1,4-benzodioxin-2-yl)methyl]amino]propoxy]-2H-1-benzopyran-2-one]
Dopa Accumulation (% inhib. @ 10 mg/kg, sc), limbic (L) [1]: 45%

Compound: O=C1CC2(CCCC2)CC(=O)N1CCCCNCC1COc2ccccc2O1 (stereo not drawn) [MDL 72832, 8-[4-(1,4-benzodioxan-2-ylmethylamino)butyl]-8-azaspiro[4.5]decane-7,9-dione]
selectivity as ligand for 5-HT1A receptors (in words) (5-HT1A receptor; Fozard et al. 1987): selective and stereospecific

Compound: O=C1CC2(CCCC2)CC(=O)N1CCCCN1CCN(c2ncccn2)CC1 [buspirone]
affinity for the 5-HT1A serotonin receptor subtype (in words) (5-HT1A receptor; standard for anxiolytic activity): potent affinity
